Results published in article PMC6100512, “In-Vitro Activity of Silybin and Related Flavonolignans against Leishmania infantum and L. donovani” (Molecules : A Journal of Synthetic Chemistry and Natural …, 2018).

Tests used:
L. major promastigotes = system: L. major promastigotes; parameters: method as in PMID 29716183; settings: 12.5 µM; cited from earlier work
Li UCM9 promastigotes = assay: Multiplication of Li promastigotes in vitro (CellTiter-Glo, 24 h); assay type: cell-based, Leishmania infantum; settings: for inhibition of growth at 120 µM: compared to untreated cultures, mean ± SD, read-out: Reduction (%) of multiplication, L infantum promastigotes
Description: (§1) Growth was estimated by the addition of CellTiter-Glo® (Promega, Madison, WI, USA) (1:1) in 96-well microtiter white plates (Costar, Corning). After 10 min incubation (light protected, room temperature), luminescence was determined with FLUOstar Omega (BMG Labtech) reader. Sensitivity of Ld was similarly performed with promastigotes exposed to 120 μM. Control cultures (medium, untreated promastigotes, promastigotes treated with 0.2 μM AmB) were included. Experiment was carried out in triplicate and results expressed as % of inhibition of untreated control. Approximate IC50 values of the flavonolignans showing the highest inhibitory activity against Li mid-log-phase promastigotes were determined using dose-response curves. […] The compound with the highest activity, DhiS-A, was assayed against Ld promastigotes using the latter dilution series and the same culture conditions as above. For comparative purposes, mid-log promastigotes of Li and Ld were exposed to established anti-Leishmania agents: AmB (0.0078 μ[…] and 1.0 μM); […]

Ld promastigotes = assay: Multiplication of Ld promastigotes in vitro (CellTiter-Glo, 24 h); assay type: cell-based, L. donovani; settings: Leishmania donovani; for inhibition of growth at 120 µM: compared to untreated cultures, mean ± SD, read-out: Reduction (%) of multiplication, L. donovani promastigotes
Description: as §1

[1] = system: intracellular amastigotes of Li BCN150; assay: Activity against intracellular amastigotes ex vivo in mouse peritoneal Mφ; assay type: cell-based, Leishmania infantum; settings: 24 h
Description: (§2) Antiproliferative activity of flavonolignans against intracellular amastigotes was determined ex vivo using mouse peritoneal Mφ. Infections were carried out following the method and modifications described by us. Briefly, Mφ were seeded onto 8-well cell culture slides (SLP, Lifesciences Co., Pocheon, Korea) in a final volume of 400 µL (2.5 × 10^4 Mφ/well). Plates were incubated overnight at 37 °C under humidified 5% CO2/95% air atmosphere to facilitate adherence. Stationary-phase promastigotes of Ld and Li were centrifuged (370× g, 10 min) without break in a Ficoll (Sigma, Saint Louis, MO, USA) gradient (0%, 10% in Medium 199 and 30% in sterile phosphate-buffered saline). Metacyclic promastigotes, located in the 10–30% Ficoll interphase, were recovered, washed and opsonized in 15% normal mouse serum in 1:1 solution of RPMI and HBSS medium (Gibco, Life Technologies, Paisley, UK), 0.15 mM CaCl2 and 1 mM MgCl2 at 37 °C, 5% CO2 atmosphere for 30 min. Purified metacyclic promastigotes were added to the Mφ cultures using a ratio 4:1 (promastigotes:Mφ) for Li and 10:1 for Ld. Plates were incubated at 33 °C overnight as above. Noninternalized promastigotes were eliminated by repeated washing with fresh medium. Treatments (10 µM) were added to the cultures and kept for 24 h. Slides were methanol-fixed and stained with May–Grünwald Giemsa (Merck) to determine the % of infection and the number of amastigotes/100 Mφ under microscope. Cultures untreated, treated with 0.05% DMSO and treated with 0.1 µM AmB were included as controls. Experiments were done in triplicate and the activity was expressed as % of inhibition compared to untreated cultures.

[2] = system: BALB/c mouse peritoneal macrophages, Mφ; assay: Toxicity of flavonolignans for macrophages (CellTiter-Glo); assay type: cell-based; settings: Peritoneal macrophage, 24 h, 28.125 to 900 µM, approximate
Description: Toxicity of flavonolignans for mammalian cells was determined using mouse peritoneal Mφ. Cells obtained were counted and seeded onto 96-well cultures plates (Costar, Corning) at a final concentration of 5 × 10^4 Mφ/well (100 µL/well). Plates were incubated overnight at 37 °C and humidified 5% CO2/95% air to facilitate adherence. Cells were cultured as above for 24 h with different concentrations of the flavonolignans (28.125 µM, 56.25 µM, 112.5 µM, 225 µM, 450 µM and 900 µM). After incubation, cell viability was determined with CellTiter-Glo® as previously described. Untreated and 300 µM AmB-treated control wells were included. Experiments were done in triplicate and approximate IC50 determined.

Li promastigotes = assay: Drug combination with DhiS-A, Chou-Talalay method (CalcuSyn); assay type: cell-based, Leishmania infantum; settings: for DRI of DhiS-A in combination with AmB / Dose Required of DhiS-A in combination with AmB: AmB:DhiS-A 0.01:15; for Dose Required of DhiS-A in combination with AmB / Dose Required of DhiS-A in combination with PMM / Dose Required of DhiS-A in combination with Sb^III: computer-simulated; for DRI of DhiS-A in combination with PMM / Dose Required of DhiS-A in combination with PMM: PMM:DhiS-A 5:1; for DRI of DhiS-A in combination with Sb^III / Dose Required of DhiS-A in combination with Sb^III: Sb^III:DhiS-A 1:1
Description: Fixed-combination ratios of drugs were based on the IC50 values determined for the individual molecules. Mid-log-phase promastigotes of Li were exposed for 24 h at constant ratios of 0.01:15 (AmB:DhiS-A), 1:1 (Sb^III:DhiS-A) and 5:1 (PMM:DhiS-A). Dose–response curves of the combinations were analyzed with the Chou–Talalay method, based on the theorem of combination index (CI)-isobologram and CalcuSyn software. This method allows the evaluation of the type of interaction between two molecules according to mass action law. Results can be used to determine quantitatively the synergy (CI < 1), additive effect (CI = 1) or antagonism (CI > 1) of combinations. Moreover, the program allows the calculation of the drug reduction index (DRI): dose reduction in drug combinations to reach a given inhibition compared to the activity of the individual drugs.

[3] = system: intracellular amastigotes of Ld; assay: Activity against intracellular amastigotes ex vivo in mouse peritoneal Mφ; assay type: cell-based, L. donovani; settings: 24 h
Description: as §2, with “Slides were methanol-fixed and stained with May–Grünwald Giemsa (Merck) to determine the % of infection and the number of amastigotes/100 Mφ under microscope. Cultures untreated, treated with 0.05% DMSO and treated with 0.1 µM AmB were included as controls.” left out

amastigotes of L. major = system: amastigotes of L. major; parameters: method as in PMID 29716183; settings: cited from earlier work

Compound: antimoniate of N-methyl glucamine [Sb^V, reference compound]
- Reduction of the multiplication of L. major promastigotes (L. major promastigotes): ca. 70%
- Sensitivity of Li promastigotes (in words) (Li UCM9 promastigotes; dose-response 3.75-480 µM): insensitive

Compound: COc1cc([C@H]2Oc3ccc(-c4oc5cc(O)cc(O)c5c(=O)c4O)cc3O[C@@H]2CO)ccc1O [Dehydroisosilybin A, dehydroisosilybin A]
- inhibition of growth at 120 µM (Ld promastigotes): 87.6 ± 2.82%
- IC50 (Ld promastigotes; approximate, dose-response curve): ~90.2 µM
- Antileishmanial activity on intracellular amastigotes (in words) ([1]; 10 µM): ineffective against amastigotes
- Intracellular burdens (amastigotes/100 Mφ) after treatment, Li ([1]; 10 µM): did not show any reduction
- Antileishmanial activity on intracellular amastigotes (in words) ([1]; 10 µM, listed as DhiS-A): did not show any antiproliferative activity
- Mφ infection (%), Li ([1]; treated with 10 µM, nontreated 50.67 ± 4.62%): 45.67 ± 7.51%
- IC50 [2]: ~30 µM
- DRI of DhiS-A in combination with AmB (Li promastigotes; ED10): 0.88
- Dose Required of DhiS-A in combination with AmB (Li promastigotes; ED10): 34.79 µM
- DRI of DhiS-A in combination with AmB (Li promastigotes; ED25): 1.13
- Dose Required of DhiS-A in combination with AmB (Li promastigotes; ED25): 44.61 µM
- DRI of DhiS-A in combination with AmB (Li promastigotes; ED50): 1.47
- Dose Required of DhiS-A in combination with AmB (Li promastigotes; ED50): 57.21 µM
- DRI of DhiS-A in combination with PMM (Li promastigotes; ED50): 0.51
- Dose Required of DhiS-A in combination with PMM (Li promastigotes; ED50): 164 µM
- DRI of DhiS-A in combination with Sb^III (Li promastigotes; ED50): 1.50
- Dose Required of DhiS-A in combination with Sb^III (Li promastigotes; ED50): 56 µM
- DRI of DhiS-A in combination with AmB (Li promastigotes; ED75): 1.90
- Dose Required of DhiS-A in combination with AmB (Li promastigotes; ED75): 73.36 µM
- DRI of DhiS-A in combination with PMM (Li promastigotes; ED75): 0.60
- Dose Required of DhiS-A in combination with PMM (Li promastigotes; ED75): 229 µM
- DRI of DhiS-A in combination with Sb^III (Li promastigotes; ED75): 0.99
- Dose Required of DhiS-A in combination with Sb^III (Li promastigotes; ED75): 141.12 µM
- DRI of DhiS-A in combination with AmB (Li promastigotes; ED90): 2.91
- Dose Required of DhiS-A in combination with AmB (Li promastigotes; ED90): 94.08 µM
- DRI of DhiS-A in combination with PMM (Li promastigotes; ED90): 0.72
- Dose Required of DhiS-A in combination with PMM (Li promastigotes; ED90): 318 µM
- DRI of DhiS-A in combination with Sb^III (Li promastigotes; ED90): 0.65
- Dose Required of DhiS-A in combination with Sb^III (Li promastigotes; ED90): 355.63 µM
- DRI of DhiS-A in combination with AmB (Li promastigotes; ED95): 4.28
- Dose Required of DhiS-A in combination with AmB (Li promastigotes; ED95): 111.42 µM
- DRI of DhiS-A in combination with PMM (Li promastigotes; ED95): 0.81
- Dose Required of DhiS-A in combination with PMM (Li promastigotes; ED95): 399 µM
- DRI of DhiS-A in combination with Sb^III (Li promastigotes; ED95): 0.49
- Dose Required of DhiS-A in combination with Sb^III (Li promastigotes; ED95): 666.84 µM
- Intracellular burdens (amastigotes/100 Mφ) after treatment, Ld ([3]; 10 µM): did not show any reduction
- Mφ infection (%), Ld ([3]; treated with 10 µM, nontreated 69.67 ± 8.50%): 67.0 ± 6.08%
- inhibition of growth at 120 µM (Li UCM9 promastigotes; Leishmania infantum, 24 h): 38.3 ± 4.96%
- IC50 (Li UCM9 promastigotes; Leishmania infantum, approximate, dose-response curve, 24 h): ~90.2 µM
- Emax (Li UCM9 promastigotes; Leishmania infantum, exploratory screening, 0.94 µM up to 120 µM, read-out: Maximal effect (inhibition of growth of control cultures) on Li promastigotes): < 50%
- Inhibition of Li promastigote multiplication reached in dose-response curve (Li UCM9 promastigotes; maximal concentration used 480/600 µM): complete inhibition

Compound: COc1cc(C2Oc3cc([C@H]4Oc5cc(O)cc(O)c5C(=O)[C@@H]4O)ccc3OC2CO)ccc1O (stereo partly drawn) [Silybin AB, silybin AB]
- inhibition of growth at 120 µM (Ld promastigotes): 37 ± 3.91%
- Antileishmanial activity on intracellular amastigotes (in words) ([1]; 10 µM): no antileishmanial activity was found
- Inhibition of the multiplication of amastigotes of L. major (amastigotes of L. major): 53%
- inhibition of growth at 120 µM (Li UCM9 promastigotes; Leishmania infantum, 24 h): 5.4 ± 2.02%
- Inhibition on Li promastigotes (in words) (Li UCM9 promastigotes; exploratory screening, 0.94 µM up to 120 µM): neither silymarin nor the main component, silybin, elicited any inhibition
